Drawing on ChEMBL document CHEMBL5303766, “Data for DCP probe FHT-2344” (2022), this text covers delta Tm Staurosporine positive control, ΔTm and inhibition for 2 compounds.

The inhibition is the change of the read-out against control, counted positive when it falls.

Experiment [1] concerns the target T1, Dual specificity mitogen-activated protein kinase kinase 4 (Homo sapiens) (UniProt P45985).
T1 sequence (whole entry): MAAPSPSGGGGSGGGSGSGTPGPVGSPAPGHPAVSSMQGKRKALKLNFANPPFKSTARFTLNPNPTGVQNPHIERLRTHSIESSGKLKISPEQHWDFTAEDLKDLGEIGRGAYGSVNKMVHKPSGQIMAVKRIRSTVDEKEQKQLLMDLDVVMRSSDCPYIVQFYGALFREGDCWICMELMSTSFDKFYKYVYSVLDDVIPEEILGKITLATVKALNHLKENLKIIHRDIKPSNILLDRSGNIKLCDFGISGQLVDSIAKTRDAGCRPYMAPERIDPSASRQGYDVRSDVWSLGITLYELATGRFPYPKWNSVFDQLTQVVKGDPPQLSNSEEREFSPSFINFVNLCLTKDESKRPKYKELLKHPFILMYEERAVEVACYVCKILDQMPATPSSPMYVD
The experiment is described as follows: MAP2K4 SGC Tm panel (DSF). The note with it: for ΔTm: Compound concentration 10.0 uM.

Experiment [2] addresses T2, Mitogen-activated protein kinase 13 (Homo sapiens) (UniProt O15264).
T2 sequence (whole entry): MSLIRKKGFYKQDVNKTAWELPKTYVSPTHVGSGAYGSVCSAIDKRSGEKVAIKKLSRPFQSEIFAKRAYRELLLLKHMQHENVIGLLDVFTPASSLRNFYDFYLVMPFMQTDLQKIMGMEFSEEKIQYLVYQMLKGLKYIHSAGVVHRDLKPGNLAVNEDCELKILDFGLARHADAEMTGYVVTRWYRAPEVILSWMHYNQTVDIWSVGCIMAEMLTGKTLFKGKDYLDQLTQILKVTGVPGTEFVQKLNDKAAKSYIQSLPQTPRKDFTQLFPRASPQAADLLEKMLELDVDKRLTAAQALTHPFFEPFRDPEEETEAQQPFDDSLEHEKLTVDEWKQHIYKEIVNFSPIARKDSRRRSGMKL
The experiment is described as follows: MAPK13 SGC Tm panel (DSF). The conditions noted are these: for ΔTm: Compound concentration 10.0 uM.

Experiment [3] deals with T3, Serine/threonine-protein kinase Nek1 (Homo sapiens) (UniProt Q96PY6).
T3 sequence (whole entry): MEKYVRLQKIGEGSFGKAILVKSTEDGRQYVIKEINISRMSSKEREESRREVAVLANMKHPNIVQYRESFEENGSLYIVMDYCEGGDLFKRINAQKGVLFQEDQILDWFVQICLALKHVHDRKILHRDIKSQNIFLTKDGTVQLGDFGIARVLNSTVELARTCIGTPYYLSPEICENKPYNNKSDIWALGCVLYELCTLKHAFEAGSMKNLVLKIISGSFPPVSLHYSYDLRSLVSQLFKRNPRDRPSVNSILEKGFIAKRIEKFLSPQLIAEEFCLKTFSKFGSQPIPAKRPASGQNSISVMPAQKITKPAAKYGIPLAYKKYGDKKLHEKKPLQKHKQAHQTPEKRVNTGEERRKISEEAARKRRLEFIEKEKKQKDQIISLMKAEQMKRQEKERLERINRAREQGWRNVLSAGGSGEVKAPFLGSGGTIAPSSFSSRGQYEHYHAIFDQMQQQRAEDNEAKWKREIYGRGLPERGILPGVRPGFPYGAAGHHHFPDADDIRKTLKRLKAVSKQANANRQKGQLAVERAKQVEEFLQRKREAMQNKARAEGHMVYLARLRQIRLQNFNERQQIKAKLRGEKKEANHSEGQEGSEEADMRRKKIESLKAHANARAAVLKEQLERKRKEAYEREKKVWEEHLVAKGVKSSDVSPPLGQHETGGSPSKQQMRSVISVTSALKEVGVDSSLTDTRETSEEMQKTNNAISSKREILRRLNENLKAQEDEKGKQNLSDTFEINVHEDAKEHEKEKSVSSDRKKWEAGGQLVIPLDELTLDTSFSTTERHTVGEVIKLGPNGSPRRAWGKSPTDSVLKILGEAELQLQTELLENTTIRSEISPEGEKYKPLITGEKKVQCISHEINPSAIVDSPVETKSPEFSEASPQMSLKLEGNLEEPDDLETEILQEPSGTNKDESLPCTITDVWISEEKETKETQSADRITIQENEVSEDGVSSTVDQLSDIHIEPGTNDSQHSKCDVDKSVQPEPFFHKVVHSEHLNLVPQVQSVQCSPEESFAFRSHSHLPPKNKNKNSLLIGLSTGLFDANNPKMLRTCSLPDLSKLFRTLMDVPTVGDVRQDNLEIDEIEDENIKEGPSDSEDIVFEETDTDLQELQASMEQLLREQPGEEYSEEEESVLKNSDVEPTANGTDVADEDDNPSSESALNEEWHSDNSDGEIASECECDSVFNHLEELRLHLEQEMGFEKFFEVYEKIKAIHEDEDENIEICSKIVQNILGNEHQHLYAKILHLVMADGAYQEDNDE
Nature of the experiment: NEK1 SGC Tm panel (DSF). The conditions noted are these: for ΔTm: Compound concentration 10.0 uM.

Experiment [4] concerns the target Serine/threonine-protein kinase OSR1 (Homo sapiens) (UniProt O95747). Nature of the experiment: OXSR1 SGC Tm panel (DSF). The conditions noted are these: for ΔTm: Compound concentration 10.0 uM.
Experiment [5] deals with Ribosomal protein S6 kinase alpha-1 (Homo sapiens) (UniProt Q15418). Nature of the experiment: RPS6KA1 SGC Tm panel (DSF). The note with it: for ΔTm: Compound concentration 10.0 uM.
Chain of Ribosomal protein S6 kinase alpha-1 (Homo sapiens) (Q15418 whole entry): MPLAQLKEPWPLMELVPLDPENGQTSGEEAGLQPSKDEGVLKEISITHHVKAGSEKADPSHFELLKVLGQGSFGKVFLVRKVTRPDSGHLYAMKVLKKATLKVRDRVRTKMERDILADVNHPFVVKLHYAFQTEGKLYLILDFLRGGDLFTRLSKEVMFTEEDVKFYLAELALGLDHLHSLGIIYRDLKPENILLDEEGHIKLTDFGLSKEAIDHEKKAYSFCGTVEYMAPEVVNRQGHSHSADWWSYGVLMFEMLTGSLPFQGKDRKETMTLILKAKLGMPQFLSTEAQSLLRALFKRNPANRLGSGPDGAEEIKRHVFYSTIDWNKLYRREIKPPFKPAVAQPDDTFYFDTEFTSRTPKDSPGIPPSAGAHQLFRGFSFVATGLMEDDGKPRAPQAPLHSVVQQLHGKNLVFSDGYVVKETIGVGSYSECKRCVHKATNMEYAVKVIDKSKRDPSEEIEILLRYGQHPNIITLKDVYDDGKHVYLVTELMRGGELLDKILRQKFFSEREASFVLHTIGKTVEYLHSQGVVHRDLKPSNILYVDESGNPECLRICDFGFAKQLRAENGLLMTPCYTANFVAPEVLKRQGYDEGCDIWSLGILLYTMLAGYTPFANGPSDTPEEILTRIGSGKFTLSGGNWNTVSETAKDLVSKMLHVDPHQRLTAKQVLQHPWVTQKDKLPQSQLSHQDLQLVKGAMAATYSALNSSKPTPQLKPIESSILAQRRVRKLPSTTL
Experiment [6] concerns the target SRSF protein kinase 1 (Homo sapiens) (UniProt Q96SB4). The experiment is described as follows: SRPK1 SGC Tm panel (DSF). The note with it: for ΔTm: Compound concentration 10.0 uM.
The target of experiment [7] is Serine/threonine-protein kinase WNK1 (Homo sapiens) (UniProt Q9H4A3). The experiment is described as follows: WNK1 SGC Tm panel (DSF). The conditions noted are these: for ΔTm: Compound concentration 10.0 uM.
Chain of Serine/threonine-protein kinase WNK1 (Homo sapiens) (Q9H4A3 whole entry, looked up): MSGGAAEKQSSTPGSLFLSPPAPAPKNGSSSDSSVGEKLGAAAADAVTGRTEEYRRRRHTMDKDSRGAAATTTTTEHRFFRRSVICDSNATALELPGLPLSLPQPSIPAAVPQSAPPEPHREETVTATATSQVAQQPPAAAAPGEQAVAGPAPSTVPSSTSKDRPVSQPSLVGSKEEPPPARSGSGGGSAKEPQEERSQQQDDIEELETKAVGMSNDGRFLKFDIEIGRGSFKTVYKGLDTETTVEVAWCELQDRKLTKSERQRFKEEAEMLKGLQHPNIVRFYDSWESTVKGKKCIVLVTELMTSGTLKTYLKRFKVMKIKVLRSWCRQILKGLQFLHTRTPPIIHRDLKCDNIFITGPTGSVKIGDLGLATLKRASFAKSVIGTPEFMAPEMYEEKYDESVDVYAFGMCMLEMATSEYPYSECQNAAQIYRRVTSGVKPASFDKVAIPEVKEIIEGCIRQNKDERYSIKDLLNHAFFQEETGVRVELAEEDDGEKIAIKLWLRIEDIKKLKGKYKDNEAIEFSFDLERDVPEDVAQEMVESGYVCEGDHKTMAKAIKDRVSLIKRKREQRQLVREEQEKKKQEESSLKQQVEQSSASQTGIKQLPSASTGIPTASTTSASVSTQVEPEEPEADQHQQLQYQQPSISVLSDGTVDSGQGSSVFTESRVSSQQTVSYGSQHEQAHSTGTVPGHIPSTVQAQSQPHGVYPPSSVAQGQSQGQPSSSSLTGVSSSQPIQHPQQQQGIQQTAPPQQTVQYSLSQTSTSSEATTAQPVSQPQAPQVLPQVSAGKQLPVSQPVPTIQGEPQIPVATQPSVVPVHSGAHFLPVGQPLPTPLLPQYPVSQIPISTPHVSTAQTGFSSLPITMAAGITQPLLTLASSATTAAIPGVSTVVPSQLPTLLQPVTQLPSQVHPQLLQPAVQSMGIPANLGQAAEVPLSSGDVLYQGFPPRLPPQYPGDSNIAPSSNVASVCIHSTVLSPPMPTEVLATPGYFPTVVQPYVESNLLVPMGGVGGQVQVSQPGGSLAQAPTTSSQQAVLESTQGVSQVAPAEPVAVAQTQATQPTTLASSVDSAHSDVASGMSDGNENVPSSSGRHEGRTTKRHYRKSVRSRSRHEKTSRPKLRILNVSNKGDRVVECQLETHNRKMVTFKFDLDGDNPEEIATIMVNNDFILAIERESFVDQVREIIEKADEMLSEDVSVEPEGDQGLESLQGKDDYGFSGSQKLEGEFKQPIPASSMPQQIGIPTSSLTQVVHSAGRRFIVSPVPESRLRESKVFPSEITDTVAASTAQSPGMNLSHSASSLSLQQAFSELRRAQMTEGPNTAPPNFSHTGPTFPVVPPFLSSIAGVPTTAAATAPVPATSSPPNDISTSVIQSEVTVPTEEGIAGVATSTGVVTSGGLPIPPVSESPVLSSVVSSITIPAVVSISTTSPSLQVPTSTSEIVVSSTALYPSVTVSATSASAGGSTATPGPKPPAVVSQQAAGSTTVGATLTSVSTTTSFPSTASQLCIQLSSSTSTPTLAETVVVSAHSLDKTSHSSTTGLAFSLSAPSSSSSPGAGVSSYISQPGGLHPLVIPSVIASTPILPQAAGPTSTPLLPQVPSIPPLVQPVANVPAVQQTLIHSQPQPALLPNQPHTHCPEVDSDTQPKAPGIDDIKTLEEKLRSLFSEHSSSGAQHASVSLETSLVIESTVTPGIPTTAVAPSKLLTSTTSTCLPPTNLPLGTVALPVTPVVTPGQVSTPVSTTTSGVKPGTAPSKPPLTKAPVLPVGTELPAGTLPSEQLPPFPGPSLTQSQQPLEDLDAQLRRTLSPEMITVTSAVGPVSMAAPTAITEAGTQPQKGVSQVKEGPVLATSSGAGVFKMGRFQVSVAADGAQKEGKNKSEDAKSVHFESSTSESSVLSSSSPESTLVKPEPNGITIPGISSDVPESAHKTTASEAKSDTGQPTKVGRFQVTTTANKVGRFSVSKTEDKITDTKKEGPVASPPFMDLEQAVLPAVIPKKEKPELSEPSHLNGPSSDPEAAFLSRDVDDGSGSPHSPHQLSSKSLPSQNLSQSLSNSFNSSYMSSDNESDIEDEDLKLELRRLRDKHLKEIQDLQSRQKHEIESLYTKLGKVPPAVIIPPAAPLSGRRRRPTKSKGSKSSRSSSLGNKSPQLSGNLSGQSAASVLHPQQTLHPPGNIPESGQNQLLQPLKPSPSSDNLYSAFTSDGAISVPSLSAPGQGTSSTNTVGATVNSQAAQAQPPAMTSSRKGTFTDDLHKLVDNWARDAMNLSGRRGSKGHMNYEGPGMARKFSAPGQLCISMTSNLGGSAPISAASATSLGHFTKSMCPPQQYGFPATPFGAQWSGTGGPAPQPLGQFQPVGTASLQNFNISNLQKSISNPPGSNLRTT
The target of experiment [8] is D(2) dopamine receptor (Homo sapiens) (UniProt P14416). The conditions noted are these: Compound concentration 10.0 uM.
Chain of D(2) dopamine receptor (Homo sapiens) (P14416 whole entry): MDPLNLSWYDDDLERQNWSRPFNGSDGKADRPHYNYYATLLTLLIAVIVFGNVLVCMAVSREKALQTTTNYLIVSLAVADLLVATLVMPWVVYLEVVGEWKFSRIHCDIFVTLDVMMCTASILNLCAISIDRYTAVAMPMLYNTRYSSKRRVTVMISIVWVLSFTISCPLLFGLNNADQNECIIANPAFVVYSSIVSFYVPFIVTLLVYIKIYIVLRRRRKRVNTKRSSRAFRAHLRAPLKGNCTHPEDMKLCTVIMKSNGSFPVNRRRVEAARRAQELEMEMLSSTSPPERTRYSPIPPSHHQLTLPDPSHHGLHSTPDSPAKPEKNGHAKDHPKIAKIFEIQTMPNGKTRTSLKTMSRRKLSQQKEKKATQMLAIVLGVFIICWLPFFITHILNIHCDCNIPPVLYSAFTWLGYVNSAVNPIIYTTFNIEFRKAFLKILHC
For experiment [9], the target named is Delta-type opioid receptor (Homo sapiens) (UniProt P41143). The note with it: Compound concentration 10.0 uM.
In experiment [10] the target is Histamine H3 receptor (Homo sapiens) (UniProt Q9Y5N1). The note with it: Compound concentration 10.0 uM.
The target of experiment [11] is Alpha-1B adrenergic receptor (Homo sapiens) (UniProt P35368). The conditions noted are these: Compound concentration 10.0 uM.
Experiment [12] has as its target Muscarinic acetylcholine receptor M4 (Homo sapiens) (UniProt P08173). The conditions noted are these: Compound concentration 10.0 uM.
In experiment [13] the target is GABA-A receptor; anion channel (Rattus norvegicus) (UniProt O09028+P15431+P18506+P18508+P19969+P20236+P23574+P23576+P28471+P28473+P30191+P62813+P63079+P63138+Q91ZM7+Q9ES14). The conditions noted are these: Compound concentration 10.0 uM.

Chain of SRSF protein kinase 1 (Homo sapiens) (Q96SB4 whole entry): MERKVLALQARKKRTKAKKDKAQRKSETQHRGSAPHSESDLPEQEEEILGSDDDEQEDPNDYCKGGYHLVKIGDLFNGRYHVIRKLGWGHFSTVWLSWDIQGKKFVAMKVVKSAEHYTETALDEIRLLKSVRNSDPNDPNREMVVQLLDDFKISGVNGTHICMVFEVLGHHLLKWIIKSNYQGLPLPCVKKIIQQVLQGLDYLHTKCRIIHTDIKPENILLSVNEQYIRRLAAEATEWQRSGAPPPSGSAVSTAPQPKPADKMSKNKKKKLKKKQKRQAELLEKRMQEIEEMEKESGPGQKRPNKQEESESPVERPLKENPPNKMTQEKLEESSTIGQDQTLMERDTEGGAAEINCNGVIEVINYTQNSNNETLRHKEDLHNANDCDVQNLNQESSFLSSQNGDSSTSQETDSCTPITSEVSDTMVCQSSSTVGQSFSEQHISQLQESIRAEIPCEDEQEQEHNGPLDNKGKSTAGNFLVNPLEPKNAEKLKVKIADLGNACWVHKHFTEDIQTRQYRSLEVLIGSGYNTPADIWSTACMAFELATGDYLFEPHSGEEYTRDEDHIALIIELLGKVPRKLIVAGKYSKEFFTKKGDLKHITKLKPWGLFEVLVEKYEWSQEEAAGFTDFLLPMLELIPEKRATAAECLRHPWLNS
Chain of Serine/threonine-protein kinase OSR1 (Homo sapiens) (O95747 2-527 limits assumed): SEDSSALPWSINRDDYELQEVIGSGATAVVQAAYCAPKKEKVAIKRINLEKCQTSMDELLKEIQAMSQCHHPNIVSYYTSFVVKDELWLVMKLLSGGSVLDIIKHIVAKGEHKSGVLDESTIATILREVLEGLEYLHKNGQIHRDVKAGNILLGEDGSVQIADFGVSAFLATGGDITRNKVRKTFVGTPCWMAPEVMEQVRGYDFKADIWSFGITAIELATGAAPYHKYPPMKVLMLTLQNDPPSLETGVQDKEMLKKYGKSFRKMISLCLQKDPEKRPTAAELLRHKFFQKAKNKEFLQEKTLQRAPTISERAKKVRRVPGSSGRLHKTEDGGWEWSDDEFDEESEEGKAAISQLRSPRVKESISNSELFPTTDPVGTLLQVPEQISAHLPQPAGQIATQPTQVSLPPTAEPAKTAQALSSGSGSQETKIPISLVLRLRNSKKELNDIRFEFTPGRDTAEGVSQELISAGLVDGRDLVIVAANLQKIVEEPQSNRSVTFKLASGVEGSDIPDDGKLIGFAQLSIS

`COC[C@H](NC(=O)c1ccn(S(C)(=O)=O)c1)C(=O)Nc1nc(-c2cccc(-c3ccn(C)n3)c2)cs1`: the delta Tm Staurosporine positive control was 10.8 in [1]; 6.96 in experiment [2]; -0.578 in [3]; 5.06 in experiment [4]; 3.76 in [5]; 7.14 in [6]. For the same compound, the delta Tm Staurosporine positive control in experiment [7] stood at 0.638. Also, the ΔTm in experiment [1] is 0.427; in experiment [2], 0.221; in experiment [3], -0.226; in experiment [4], -0.0355; in [5], 0.166; in experiment [6], 0.728. Besides, the ΔTm in experiment [7] is 0.232. For the same compound, the inhibition is 6.68% in experiment [8]; 9.17% in experiment [9]; 7.45% in experiment [10]; -5.17% in experiment [11]; 4.13% in experiment [12]; 16% in experiment [13].
For the compound `C[C@H](NC(=O)c1cn(C2(C#N)CC2)cn1)C(=O)Nc1nc(-c2cccc(-c3ccn(C)n3)c2)cs1`, the delta Tm Staurosporine positive control in experiment [1] is 10.8; in experiment [2], 6.96; in [3] it was -0.578; in experiment [4], 5.06; in experiment [5], 3.76; in experiment [6], 7.14. Moreover, the delta Tm Staurosporine positive control in experiment [7] was 0.638. Further, the ΔTm in [1] was 0.342; in experiment [2], 0.161; in experiment [3], -0.482; in experiment [4], 1.31; in experiment [5] it was 0.223; in experiment [6], 0.0203. In experiment [7], the ΔTm is 0.361. Moreover, the inhibition is 6.41% in experiment [8]; 12.4% in [9]; 0.34% in [10]; 8% in [11]; 7.09% in experiment [12]; 31.5% in experiment [13].
